In patent publication US20170088546A1 (priority 2014, published 2017):
Where two headings read alike, the source gives them in different places.

Assays:
Smurf-2 = Smurf-2 (Homo sapiens, UniProt Q9HAU4); assay: HECT E3 ligase autoubiquitinylation TR-FRET assay, Smurf-2; type: biochemical
Description: (§1) To determine the HECT E3 ligase selectivity of the compounds, a panel of biochemical HECT E3 ligase autoubiquitinylation assays was employed (Smurf-1, Smurf-2, WWP1, WWP2, ITCH, Nedd4, Nedd4L and E6AP). The conjugation of ubiquitin to a protein substrate is a multistep process. In an initial ATP-requiring step, a thioester bond is formed between the carboxyl terminus of ubiquitin and an internal cystein residue of the ubiquitin-activating enzyme (E1). Activated ubiquitin is then transferred to a specific cystein residue of an ubiquitin-conjugating enzyme (E2). E2s donate ubiquitin to a HECT E3 ligase (E3) from which it is transferred to the substrate protein. HECT E3 ligases can auto-ubiquitinylate. This event is detected in the TR-FRET (Time-Resolved Fluorescence Resonance Energy Transfer) assay used in this panel. The reaction mix contains E1, E2, tagged-E3, biotin-conjugated ubiquitin, the compound and ATP in a suitable buffer and is incubated for 45 minutes to allow auto-ubiquitinylation of the E3 ligase. To measure the extent of ubiquitinylated E3 ligase by TR-FRET, the donor fluorophore Europium cryptate (Eu3+ cryptate), conjugated to streptavidin which subsequently binds to biotinylated ubiquitin, and the modified allophycocyanin XL665 (HTRF® primary acceptor fluorophore) coupled to a tag-specific antibody (HA, His or GST), which recognizes the respective E3 ligase fusion proteins, are added after the reaction is complete. When these two fluorophores are brought together by a biomolecular interaction (in this case ubiquitinylation of the E3 ligase), a portion of the energy captured by the Cryptate during excitation is released through fluorescence emission at 620 nm, while the remaining energy is transferred to XL665. This energy is then released by XL665 as specific fluorescence at 665 nm. Light at 665 nm is emitted only through FRET with Europium.
(§2) Test and reference compounds are prepared at 180×[final] in 90% DMSO, and diluted 1:3 in 90% DMSO.
(§3) For the biochemical assay panel, 50 nl of the test compounds, reference compounds and buffer/DMSO control are transferred to the respective wells of a 384-well white GREINER “SMALL VOLUME” PS plate. The assay panel is run at room temperature on a Biomek FX liquid handling workstation. To the assay plates containing 50 nl compound or control solutions in 90% DMSO, 4.5 ul of E3 ligase solution were added per well, followed by 4.5 ul of the pre-incubated E1/E2/Ub mix or the pre-diluted ubiquitin (LOW control). Plates are shaken vigorously after each addition. In this assay the compound concentrations range from 3 nM to 10 uM in an 8-point dose-response curve.
(§4) After an incubation time of 45 min in the dark, the plates are transferred into the Pherastar fluorescence reader to measure the TR-FRET signal.

Smurf-1 = Smurf-1 (Homo sapiens, UniProt Q9HCE7); assay: biochemical; type: biochemical
Description: as §1, §2, §3, §4

[1] = biochemical autoubiquitinylation TR-FRET, 45 min incubation, 8-point dose-response 3 nM to 10 uM, read-out: Smurf-2/IC50
[2] = biochemical autoubiquitinylation TR-FRET, 45 min incubation, 8-point dose-response 3 nM to 10 uM

Smurf-2, sequence (Q9HAU4 whole entry, species assumed): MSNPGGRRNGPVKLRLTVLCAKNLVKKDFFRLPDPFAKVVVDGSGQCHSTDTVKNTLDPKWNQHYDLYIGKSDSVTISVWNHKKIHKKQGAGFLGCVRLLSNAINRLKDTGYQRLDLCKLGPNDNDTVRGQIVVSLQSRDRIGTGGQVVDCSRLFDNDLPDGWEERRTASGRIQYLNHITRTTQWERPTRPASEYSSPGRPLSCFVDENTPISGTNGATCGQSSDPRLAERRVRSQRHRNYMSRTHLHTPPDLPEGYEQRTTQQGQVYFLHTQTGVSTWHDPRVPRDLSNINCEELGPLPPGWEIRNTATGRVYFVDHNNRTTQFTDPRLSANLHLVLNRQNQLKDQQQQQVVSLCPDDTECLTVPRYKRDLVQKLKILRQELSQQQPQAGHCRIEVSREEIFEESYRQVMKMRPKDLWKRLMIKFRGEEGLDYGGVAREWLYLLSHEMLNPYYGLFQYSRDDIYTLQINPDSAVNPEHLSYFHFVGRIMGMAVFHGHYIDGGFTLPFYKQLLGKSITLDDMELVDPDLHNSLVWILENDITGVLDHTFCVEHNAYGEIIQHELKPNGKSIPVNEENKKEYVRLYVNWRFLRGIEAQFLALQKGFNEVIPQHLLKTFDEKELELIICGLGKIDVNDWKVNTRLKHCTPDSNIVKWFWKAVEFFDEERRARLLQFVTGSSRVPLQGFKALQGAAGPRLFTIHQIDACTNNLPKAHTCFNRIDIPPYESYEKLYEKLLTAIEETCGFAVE
Smurf-1, sequence (Q9HCE7 whole entry): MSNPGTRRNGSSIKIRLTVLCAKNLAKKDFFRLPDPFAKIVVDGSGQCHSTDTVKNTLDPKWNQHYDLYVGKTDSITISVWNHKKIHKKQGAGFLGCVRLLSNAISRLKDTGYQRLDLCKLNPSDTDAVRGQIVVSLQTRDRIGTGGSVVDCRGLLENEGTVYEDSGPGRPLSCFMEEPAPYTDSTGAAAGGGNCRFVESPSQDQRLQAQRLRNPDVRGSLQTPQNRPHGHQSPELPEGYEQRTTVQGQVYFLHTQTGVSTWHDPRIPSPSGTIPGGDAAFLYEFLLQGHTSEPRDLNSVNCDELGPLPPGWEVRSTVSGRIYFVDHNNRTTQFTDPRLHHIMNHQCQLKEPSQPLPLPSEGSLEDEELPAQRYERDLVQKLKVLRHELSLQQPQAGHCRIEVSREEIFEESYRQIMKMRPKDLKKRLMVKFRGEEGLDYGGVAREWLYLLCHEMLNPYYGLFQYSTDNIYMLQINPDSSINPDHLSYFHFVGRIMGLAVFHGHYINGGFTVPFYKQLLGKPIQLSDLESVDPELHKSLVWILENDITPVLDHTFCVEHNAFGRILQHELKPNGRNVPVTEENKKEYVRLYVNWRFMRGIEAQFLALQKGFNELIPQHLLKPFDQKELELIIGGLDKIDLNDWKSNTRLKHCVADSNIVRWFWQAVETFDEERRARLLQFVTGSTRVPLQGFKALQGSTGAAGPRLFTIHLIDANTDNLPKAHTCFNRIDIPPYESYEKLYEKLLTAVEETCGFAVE

IC50 (Smurf-1) [nM] | Structure (SMILES) | IC50 (Smurf-2; [1]) [nM] | IC50 (Smurf-1; [2]) [nM] | IC50 (Smurf-2) [nM]
 | Cc1c(NC(=O)c2noc3c2CCCc2cc(OC(F)(F)F)ccc2-3)c(=O)n(-c2c(Cl)cccc2Cl)n1C [Example 41, N-(2-(2,6-dichlorophenyl)-1,5-dimethyl-3-oxo-2,3-dihydro-1H-pyrazol-4-yl)-8-(trifluoromethoxy)-5,6-dihydro-4H-benzo[3,4]cyclohepta[1,2-d]isoxazole-3-carboxamide] | 390 | 4.5 | 
 | Cc1c(NC(=O)c2noc3c2CCCc2cc(OC(F)(F)F)ccc2-3)c(=O)n(C2CCCCC2)n1C [Example 45, N-(2-cyclohexyl-1,5-dimethyl-3-oxo-2,3-dihydro-1H-pyrazol-4-yl)-8-(trifluoromethoxy)-5,6-dihydro-4H-benzo[3,4]cyclohepta[1,2-d]isoxazole-3-carboxamide] | 175 | 2.2 | 
 | Cc1c(NC(=O)c2noc3c2CCSc2cc(OC(F)(F)F)ccc2-3)c(=O)n(-c2ccccc2F)n1C [Example 46, N-(2-(2-fluorophenyl)-1,5-dimethyl-3-oxo-2,3-dihydro-1H-pyrazol-4-yl)-8-(trifluoromethoxy)-4,5-dihydrobenzo[6,7]thiepino[4,5-d]isoxazole-3-carboxamide] |  | 31.5 | > 10000
 | Cc1c(NC(=O)c2noc3c2CCSc2ccccc2-3)c(=O)n(-c2ccccc2)n1C [Example 47, N-(1,5-dimethyl-3-oxo-2-phenyl-2,3-dihydro-1H-pyrazol-4-yl)-4,5-dihydrobenzo[6,7]thiepino[4,5-d]isoxazole-3-carboxamide] |  | 1130 | > 10000
 | Cc1c(NC(=O)c2noc3c2CC2C(c4ccccc4-3)C2(Cl)Cl)c(=O)n(-c2ccccc2)n1C (stereo not drawn) [Example 50, 9,9-dichloro-N-(1,5-dimethyl-3-oxo-2-phenyl-2,3-dihydro-1H-pyrazol-4-yl)-8,8a,9,9a-tetrahydrobenzo[3,4]cyclopropa[5,6]cyclohepta[1,2-d]isoxazole-7-carboxamide] |  | 462 | > 10000
 | Cc1c(NC(=O)c2noc3c2CCCCc2ccccc2-3)c(=O)n(-c2ccccc2)n1C [Example 51, N-(1,5-dimethyl-3-oxo-2-phenyl-2,3-dihydro-1H-pyrazol-4-yl)-4,5,6,7-tetrahydrobenzo[3,4]cycloocta[1,2-d]isoxazole-3-carboxamide] |  | 658 | > 10000
 | COc1ccc2c(c1)CCCCc1c(C(=O)Nc3c(C)n(C)n(-c4ccccc4F)c3=O)noc1-2 [Example 53, N-(2-(2-fluorophenyl)-1,5-dimethyl-3-oxo-2,3-dihydro-1H-pyrazol-4-yl)-9-methoxy-4,5,6,7-tetrahydrobenzo[3,4]cycloocta[1,2-d]isoxazole-3-carboxamide] |  | 132 | > 10000
192 | COc1ccc2c(c1)OCCCc1c(C(=O)Nc3c(C)n(C)n(C4CCCCC4)c3=O)noc1-2 [Example 54, N-(2-cyclohexyl-1,5-dimethyl-3-oxo-2,3-dihydro-1H-pyrazol-4-yl)-9-methoxy-5,6-dihydro-4H-benzo[2,3]oxocino[5,4-d]isoxazole-3-carboxamide] |  |  | > 10000
 | COc1ccc(Cn2c(=O)c(NC(=O)c3noc4c3CCCc3cc(OC)ccc3-4)c(C)n2C)cc1 [Example 55, 8-methoxy-N-(2-(4-methoxybenzyl)-1,5-dimethyl-3-oxo-2,3-dihydro-1H-pyrazol-4-yl)-5,6-dihydro-4H-benzo[3,4]cyclohepta[1,2-d]isoxazole-3-carboxamide] |  | 9900 | > 10000
